Experimental data as given in article PMC10426190 (Breast Cancer Research : BCR, 2023).

Tested on: E2-induced (ER target) genes in MCF7
Test: Gene expression analysis by RNA-sequencing in MCF7 with E2 stimulation
Format: cell-based, human
Details: MCF7; 1 nM E2 ± 1 μM compound, 24 h
Protocol: MCF7 were cultured in hormone deprivation media (with 10% charcoal-stripped FBS) for at least 3 days before assay. Trypsinized cells were seeded in a 12-well plate, stimulated with 1 nM β-estradiol (E2), and treated with/without 1 μM compounds for 24 h. Total RNA was extracted using the TRIzol reagent according to the manufacturer’s protocol. RNA purity and quantification were evaluated using the NanoDrop 2000 spectrophotometer (Thermo Scientific, USA). RNA integrity was assessed using the Agilent 2100 Bioanalyzer (Agilent Technologies, Santa Clara, CA, USA). Then the libraries were constructed using TruSeq Stranded mRNA LT Sample Prep Kit (Illumina, San Diego, CA, USA) according to the manufacturer’s instructions. The transcriptome sequencing and analysis were conducted by OE Biotech Co., Ltd. (Shanghai, China). The libraries were sequenced on an Illumina HiSeq X Ten platform and 150 bp paired-end reads were generated. […] Raw data (raw reads) of FASTq format were firstly processed using Trimmomatic and the low-quality reads were removed to obtain the clean reads. […] The clean reads were mapped to the human genome (GRCh38) using HISAT2 [27]. FPKM [28] of each gene was calculated using Cufflinks, and the read counts of each gene were obtained by HTSeqcount. Differential expression analysis was performed using the DESeq (2012) R package.
MCF7 with hormone-deprived pre-treatment were administrated ER ligands or not present with 1 nM E2 stimulation for 24 h incubation in a 12-well plate. Total mRNA was isolated from treated cells and sequenced on an Illumina HiSeq X Ten platform. FPKM of each gene was calculated using Cufflinks and Differential expression genes analysis by using the DESeq (2012) R package. […] T47D EFM-19 and HCC1500 cells were grown in RPMI media supplemented with 10% charcoal-stripped FBS for 14 days and then treated with ER antagonist (1 μM) or DMSO in the presence E2 (1nM) stimulation for 24 h before RNA isolation and gene expression analysis as described in methods. […] The uteruses were harvested 24 h after the final doses and stained by toluidine blue. Endometrial height was assessed from the basement membrane to the luminal border (scale bar in green lines: 200 μm), Arrows indicate the uterine epithelium (e).

Structure (SMILES): C[C@]12CC[C@@H]3c4ccc(O)cc4CC[C@H]3[C@@H]1CC[C@@H]2O [E2, β-estradiol]
- ACTG2 expression: 3.78 FPKM
- ADCY1 expression: 29.74 FPKM
- AGR3 expression: 24.59 FPKM
- AMZ1 expression: 3.24 FPKM
- ANLN expression: 47.32 FPKM
- ARHGAP36 expression: 3.84 FPKM
- ASCL1 expression: 5.48 FPKM
- ASF1B expression: 78.22 FPKM
- ASMTL-2 expression: 6.46 FPKM
- ATAD2 expression: 69.95 FPKM
- ATRNL1 expression: 0.42 FPKM
- AURKB expression: 43.03 FPKM
- BIRC5 expression: 50.28 FPKM
- BLM expression: 8.02 FPKM
- BMPER expression: 1.39 FPKM
- BRCA1 expression: 9.45 FPKM
- BRCA2 expression: 5.65 FPKM
- BRIP1 expression: 54.99 FPKM
- BUB1B expression: 18.35 FPKM
- C1orf226 expression: 13.05 FPKM
- C5AR2 expression: 3.18 FPKM
- CA2 expression: 184.51 FPKM
- CA12 expression: 52.56 FPKM
- CALCR expression: 6.65 FPKM
- CAV1 expression: 11.53 FPKM
- CCN5 expression: 50.43 FPKM
- CCNA2 expression: 35.91 FPKM
- CCNE2 expression: 17.15 FPKM
- CD99-2 expression: 8.67 FPKM
- CDC6 expression: 16.34 FPKM
- CDC25A expression: 7.21 FPKM
- CDC45 expression: 22.61 FPKM
- CDCA3 expression: 12.59 FPKM
- CDCA4 expression: 35.30 FPKM
- CDCA5 expression: 32.97 FPKM
- CDCA7 expression: 8.46 FPKM
- CDH26 expression: 1.84 FPKM
- CDK1 expression: 34.56 FPKM
- CDT1 expression: 51.94 FPKM
- CENPI expression: 6.53 FPKM
- CENPU expression: 12.95 FPKM
- CHAF1B expression: 5.21 FPKM
- CHEK1 expression: 5.59 FPKM
- CKS1B expression: 97.65 FPKM
- CLSPN expression: 5.95 FPKM
- COL12A1 expression: 4.88 FPKM
- CXCL12 expression: 18.59 FPKM
- DDIAS expression: 9.79 FPKM
- DHRSX-2 expression: 1.19 FPKM
- DKK1 expression: 65.08 FPKM
- DNA2 expression: 7.03 FPKM
- DPYSL5 expression: 1.59 FPKM
- DSCC1 expression: 15.71 FPKM
- DTL expression: 6.96 FPKM
- E2F1 expression: 27.20 FPKM
- E2F2 expression: 5.64 FPKM
- E2F7 expression: 9.64 FPKM
- E2F8 expression: 10.32 FPKM
- ELOVL2 expression: 16.88 FPKM
- EME1 expression: 10.05 FPKM
- ERCC6L expression: 4.70 FPKM
- ESCO2 expression: 7.26 FPKM
- ESPL1 expression: 17.48 FPKM
- EXO1 expression: 10.16 FPKM
- FAM20A expression: 2.20 FPKM
- FAM111B expression: 12.41 FPKM
- FANCA expression: 22.66 FPKM
- FANCD2 expression: 15.48 FPKM
- FANCI expression: 48.65 FPKM
- FEN1 expression: 69.25 FPKM
- FIGNL1 expression: 5.08 FPKM
- FKBP4 expression: 141.57 FPKM
- GATA4 expression: 0.17 FPKM
- GFRA1 expression: 93.16 FPKM
- GINS1 expression: 23.84 FPKM
- GINS2 expression: 36.18 FPKM
- GJA1 expression: 1.09 FPKM
- GLA expression: 91.41 FPKM
- GP1BB expression: 2.96 FPKM
- GPR68 expression: 2.46 FPKM
- GPRIN1 expression: 8.93 FPKM
- GREB1 expression: 60.67 FPKM
- H2AX expression: 195.62 FPKM
- HBB expression: 2.07 FPKM
- HELLS expression: 7.42 FPKM
- HEY2 expression: 5.27 FPKM
- HMGB2 expression: 247.66 FPKM
- IGFBP4 expression: 131.73 FPKM
- IGSF1 expression: 11.09 FPKM
- ITGA2B expression: 1.22 FPKM
- KIF11 expression: 25.57 FPKM
- KIF18B expression: 9.55 FPKM
- KIFC1 expression: 32.81 FPKM
- KLK11 expression: 14.79 FPKM
- KNL1 expression: 7.74 FPKM
- KNTC1 expression: 15.58 FPKM
- LHX2 expression: 3.63 FPKM
- LIG1 expression: 50.95 FPKM
- LMNB1 expression: 103.66 FPKM
- MAD2L1 expression: 15.82 FPKM
- MCM2 expression: 79.68 FPKM
- MCM3 expression: 73.54 FPKM
- MCM4 expression: 90.54 FPKM
- MCM5 expression: 31.11 FPKM
- MCM6 expression: 49.04 FPKM
- MCM7 expression: 195.09 FPKM
- MCM10 expression: 11.30 FPKM
- MELK expression: 23.52 FPKM
- MKI67 expression: 43.57 FPKM
- MYB expression: 14.56 FPKM
- MYBL1 expression: 7.63 FPKM
- MYBL2 expression: 105.97 FPKM
- NCAPG2 expression: 42.44 FPKM
- NCAPG expression: 16.64 FPKM
- NPY1R expression: 21.66 FPKM
- ORC1 expression: 9.75 FPKM
- ORC6 expression: 17.34 FPKM
- PAQR4 expression: 27.39 FPKM
- PBK expression: 34.81 FPKM
- PCLAF expression: 64.57 FPKM
- PCNA expression: 139.06 FPKM
- PDZK1 expression: 5.01 FPKM
- PGR expression: 8.19 FPKM
- PKIB expression: 60.35 FPKM
- PKMYT1 expression: 41.08 FPKM
- POLA1 expression: 6.08 FPKM
- POLA2 expression: 14.49 FPKM
- POLD1 expression: 24.97 FPKM
- POLE2 expression: 6.15 FPKM
- POLE expression: 25.41 FPKM
- POLQ expression: 6.41 FPKM
- PRIM1 expression: 28.80 FPKM
- PRSS23 expression: 215.68 FPKM
- RAB31 expression: 21.61 FPKM
- RAD51AP1 expression: 13.82 FPKM
- RAD51 expression: 9.69 FPKM
- RAD54L expression: 12.35 FPKM
- RAMP3 expression: 13.53 FPKM
- RAPGEFL1 expression: 7.70 FPKM
- RBL1 expression: 5.83 FPKM
- RECQL4 expression: 32.15 FPKM
- RERG expression: 8.59 FPKM
- RET expression: 10.12 FPKM
- RFC2 expression: 36.71 FPKM
- RFC3 expression: 9.92 FPKM
- RFC4 expression: 27.17 FPKM
- RNASEH2A expression: 63.93 FPKM
- RRM1 expression: 40.40 FPKM
- RRM2 expression: 98.16 FPKM
- RUBCNL expression: 1.40 FPKM
- SDK2 expression: 1.00 FPKM
- SFXN2 expression: 31.80 FPKM
- SHCBP1 expression: 7.21 FPKM
- SKA3 expression: 14.05 FPKM
- SLC6A14 expression: 33.54 FPKM
- SMC2 expression: 14.75 FPKM
- SPC24 expression: 17.07 FPKM
- SPC25 expression: 16.49 FPKM
- STC2 expression: 134.11 FPKM
- TACC3 expression: 40.66 FPKM
- TCF19 expression: 21.19 FPKM
- TCOF1 expression: 21.81 FPKM
- TGM2 expression: 1.78 FPKM
- TICRR expression: 10.96 FPKM
- TK1 expression: 126.85 FPKM
- TMEM26 expression: 4.29 FPKM
- TMEM164 expression: 18.93 FPKM
- TONSL expression: 21.56 FPKM
- TOP2A expression: 69.34 FPKM
- TP73 expression: 3.93 FPKM
- TRIP13 expression: 21.48 FPKM
- TUBA1B expression: 1112.26 FPKM
- TUBB expression: 568.06 FPKM
- TYMS expression: 74.96 FPKM
- UBE2C expression: 67.26 FPKM
- UBE2T expression: 108.61 FPKM
- UHRF1 expression: 26.62 FPKM
- UNG expression: 64.43 FPKM
- WDHD1 expression: 10.21 FPKM
- WDR62 expression: 15.52 FPKM
- WDR76 expression: 5.46 FPKM
- XRCC2 expression: 7.64 FPKM
- XRCC3 expression: 19.64 FPKM
- ZGRF1 expression: 3.51 FPKM
- ZNF367 expression: 15.85 FPKM
